Test results: patent US7807701B2, “Dibenzylamine compounds and pharmaceutical use thereof” (Japan Tobacco Inc., priority 2002, dated 2010)

Legend:
CETP [1] = assay: Inhibitory effect exo vivo on CETP activity in total plasma of normal hamster; settings: single oral dose 3 mg/kg, blood taken 4 hr after administration, average values
Experimental: Potassium bromide (KBr) was added to plasma (40 mL) of healthy subject and the mixture was adjusted to have a specific density d=1.125 g/mL. The mixture was subjected to density gradient centrifugation (227,000×g, 4° C., 17 hr) and a fraction showing a specific density of d>1.125 g/mL (HDL3 fraction) was harvested. The obtained fraction was dialyzed against PBS solution [10 mmol/L Na2HPO4; 10 mmol/L NaH2PO4; 0.15 mol/L NaCl; […] (pH 7.4)]. Then, tritium-labeled cholesterol (37 MBq) was dissolved in 95% ethanol, gradually added to the above-mentioned HDL3 fraction with stirring and incubated at 37° C. for 18 hr. [By this operation, tritium-labeled cholesterol was esterified by the action of lecithin acyl transferase (LCAT) present on the HDL3 surface and taken up into HDL3 as tritium-labeled cholesteryl ester ([^3H]CE)]. After incubation, KBr was added, the mixture was adjusted to have a specific density d=1.21 g/mL, subjected to density gradient centrifugation (227,000×g, 4° C., 17 hr) and a fraction of specific density […] was harvested. The obtained fraction was dialyzed against the aforementioned PBS solution to give HDL3 incorporating [^3H]CE ([^3H]CE-HDL3, specific density: 1.125<d<1.21, specific activity: 10,000 dpm/μL), which was used as a donor lipoprotein.
(§1) The compound of the present invention was suspended in 0.5% methyl cellulose solution and orally administered once to a healthy hamster with a plastic gavage needle. Blood was taken at 2 or 4 hr after the administration and CETP activity in plasma was measured according to the following method.
The donor lipoprotein obtained above was added to hamster plasma (100 μL) to prepare [^3H]CE-HDL3-containing plasma (ca. 1,000 dpm/μL). The [^3H]CE-HDL3-containing plasma was dispensed to two microtubes by 25 μL each, and one was incubated at 37° C. and the other was incubated at 4° C. for 4 hr each. After ice-cooling, TBS solution (50 μl) containing 1 mol/L magnesium chloride and 2% dextran sulfate was added to each microtube and the mixture was thoroughly stirred. After keeping at […] for 30 min, the mixture was centrifuged (10,000×g, 4° C., 20 min), and the radioactivity in the obtained supernatant (HDL fraction) was measured with a liquid scintillation counter. The radioactivity of the [^3H]CE-HDL3-containing plasma was measured with a liquid scintillation counter, and taken as the total radioactivity. The transfer rate of [^3H]CE was calculated from the following formula using the total radioactivity (Total count), radioactivity by 37° C. incubation (37° C. count) and radioactivity by 4° C. incubation (4° C. count) of the sample of each individual and taken as the CETP activity. CETP activity(transfer ratio (%))={[(4° C. count)−(37° C. count)]/(Total count)}×100
The CETP activity inhibitory ratio of each compound administration group based on the CETP activity of the solvent administration group as 100% was calculated from the following formula and expressed in %.
CETP activity inhibitory ratio (%)=100−[(CETP activity of each compound administration group)/(CETP activity of solvent administration group)×100]

CETP [2] = target: T1, CETP (Homo sapiens, UniProt P11597); assay: Inhibitory effect in vitro on CETP activity in total plasma; format: biochemical; settings: plasma of healthy subject with [3H]CE-HDL3, 37° C., 4 hr; average values
T1 construct: The donor lipoprotein obtained above was added to plasma of healthy subject; from tissue; host or cells: whole plasma of healthy subject
T1 sequence (P11597 18-493): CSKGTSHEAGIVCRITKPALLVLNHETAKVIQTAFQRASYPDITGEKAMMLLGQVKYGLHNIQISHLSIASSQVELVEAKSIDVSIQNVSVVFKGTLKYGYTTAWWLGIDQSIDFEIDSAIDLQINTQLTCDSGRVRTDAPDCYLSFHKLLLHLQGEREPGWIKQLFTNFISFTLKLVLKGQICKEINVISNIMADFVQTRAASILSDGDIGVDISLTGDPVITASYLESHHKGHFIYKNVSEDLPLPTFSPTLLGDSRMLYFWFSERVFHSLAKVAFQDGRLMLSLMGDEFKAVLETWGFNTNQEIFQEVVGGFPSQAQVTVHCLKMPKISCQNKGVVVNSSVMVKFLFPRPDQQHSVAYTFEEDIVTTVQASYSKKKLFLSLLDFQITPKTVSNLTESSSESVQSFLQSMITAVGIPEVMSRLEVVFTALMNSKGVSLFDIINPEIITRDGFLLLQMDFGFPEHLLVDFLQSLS
Summary of the method: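 Healthy-donor plasma spiked with [3H]cholesteryl ester-labelled HDL3 (1,000 dpm/μL) was incubated with compound (DMF vehicle) for 4 hr at 37 °C or 4 °C. HDL was separated by MgCl2/dextran sulfate precipitation and supernatant radioactivity counted. IC50 is the concentration giving 50% inhibition of CETP activity.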

HDL cholesterol = assay: Blood HDL cholesterol increasing effect in normal hamster; format: in vivo; settings: single oral dose 3 mg/kg, versus solvent group, average values; for HDL cholesterol increase content (%) 4 (hr later): 4 hr after administration; for HDL cholesterol increase content (%) 8 (hr later): 8 hr after administration
Experimental: as §1
To the plasma (40 μL) obtained from the above-mentioned animal at 4 or 8 hr after the administration was added 15% polyethylene glycol solution (40 μL) and the mixture was thoroughly stirred. After keeping at room temperature for 10 min, the mixture was centrifuged (10,000×g, 4° C., 20 min) and the cholesterol content (HDL cholesterol content) of the obtained supernatant (HDL fraction) was measured. The increase ratio of the HDL cholesterol content of each compound administration group when the HDL cholesterol content of the solvent administration group as 100% was calculated from the following formula and expressed in %. HDL cholesterol increase ratio(%)=[(HDL cholesterol content of each compound administration group/HDL cholesterol content of solvent administration group)×100]−100

[3] = Concomitant use test with simvastatin in rabbits on high cholesterol food; format: in vivo, Japanese white rabbits; settings: high cholesterol food for 15 days with simvastatin (0.002%) and/or Example 168 (0.2%), control group = 100%; for HDL3 cholesterol content (%): plasma HDL3 fraction; for ApoA-I content (%): plasma
Excerpt: For the experiment, 10-week-old male Japanese white rabbits (manufactured by KITAYAMA LABES Co., Ltd.) were used. The animal was acclimated on normal food (RC-4, manufactured by Oriental Bio-Service Co.) and fasted for 24 hr and a high cholesterol food (0.25% cholesterol-added RC-4, manufactured by Oriental Bio-Service Co.) was given by 100 g/day per rabbit (preliminary feeding) for 3 days. On the next day of day 3 of preliminary feeding, blood was taken from the auricular artery before feeding, and the animals were grouped by 6 rabbits per group based on the parameters (HDL cholesterol content, total cholesterol content, triglyceride content) of plasma and body weight.
Foods were prepared (manufactured by Oriental Bio-Service Co.) by adding simvastatin (0.002%), compound (0.2%) of Example 168, or simvastatin (0.002%)+compound (0.2%) of Example 168 to a high cholesterol food, and each food was given to the grouped animals by 100 g/day per rabbit for 15 days. At 8 hr after feeding on day 15, the total blood was taken from the carotid artery under anesthesia, HDL cholesterol content, total cholesterol content and ApoA-I content in plasma were measured. The arteriosclerosis index was calculated from [(total cholesterol content-HDL cholesterol content)/HDL cholesterol content]. Furthermore, the HDL3 fraction was separated from plasma by ultracentrifugation and the cholesterol content of the fraction was measured. In Table, arteriosclerotic index, ApoA-1 content and HDL3 cholesterol content are shown based on the value of the control group as 100%.

| IC50 (CETP [2]) [nM] | Compound | CETP activity (%) 4 (hr later) (CETP [1]) [%] | HDL cholesterol increase content (%) 4 (hr later) (HDL cholesterol) [%] | HDL cholesterol increase content (%) 8 (hr later) (HDL cholesterol) [%] | Arteriosclerotic index (%) [3] [%] | HDL3 cholesterol content (%) [3] [%] | ApoA-I content (%) [3] [%] |
| --- | --- | --- | --- | --- | --- | --- | --- |
| 90 | CCN(C[C@H]1CC[C@H](CC(=O)O)CC1)c1ccc(OC(F)(F)F)cc1CN(Cc1cc(C(F)(F)F)cc(C(F)(F)F)c1)c1nnn(C)n1.Cl [Example 115, trans-(4-{[N-(2-{[N′-[3,5-bis(trifluoromethyl)benzyl]-N′-(2-methyl-2H-tetrazol-5-yl)amino]methyl}-4-trifluoromethoxyphenyl)-N-ethylamino]methyl}cyclohexyl)acetic acid hydrochloride] | 62.1 | 23.3 | 30.7 | – | – | – |
| 90 | CCN(C[C@H]1CC[C@H](CC(=O)O)CC1)c1ccc(C(F)(F)F)cc1CN(Cc1cc(C(F)(F)F)cc(C(F)(F)F)c1)c1nnn(C)n1.Cl [Example 118, trans-(4-{[N-(2-{[N′-[3,5-bis(trifluoromethyl)benzyl]-N′-(2-methyl-2H-tetrazol-5-yl)amino]methyl}-4-trifluoromethylphenyl)-N-ethylamino]methyl}cyclohexyl)acetic acid hydrochloride] | 55.4 | 21.1 | 31.7 | – | – | – |
| 60 | CCN(C[C@H]1CC[C@H](CC(=O)O)CC1)c1cc(C)c(C(F)(F)F)cc1CN(Cc1cc(C(F)(F)F)cc(C(F)(F)F)c1)c1nnn(C)n1.Cl [Example 142, trans-(4-{[N-(2-{[N′-[3,5-bis(trifluoromethyl)benzyl]-N′-(2-methyl-2H-tetrazol-5-yl)amino]methyl}-5-methyl-4-trifluoromethylphenyl)-N-ethylamino]methyl}cyclohexyl)acetic acid hydrochloride] | 71.6 | 20.3 | 31.9 | – | – | – |
| 100 | CCN(C[C@H]1CC[C@H](CC(=O)O)CC1)c1cc(C(F)(F)F)c(C)cc1CN(Cc1cc(C(F)(F)F)cc(C(F)(F)F)c1)c1nnn(C)n1.Cl [Example 143, trans-(4-{[N-(2-{[N′-[3,5-bis(trifluoromethyl)benzyl]-N′-(2-methyl-2H-tetrazol-5-yl)amino]methyl}-4-methyl-5-trifluoromethylphenyl)-N-ethylamino]methyl}cyclohexyl)acetic acid hydrochloride] | 42.2 | 17.0 | 21.3 | – | – | – |
| – | CCCN(C[C@H]1CC[C@H](CC(=O)O)CC1)c1ccc(C(F)(F)F)cc1CN(Cc1cc(C(F)(F)F)cc(C(F)(F)F)c1)c1nnn(C)n1.Cl [Example 154, trans-(4-{[N-(2-{[N′-[3,5-bis(trifluoromethyl)benzyl]-N′-(2-methyl-2H-tetrazol-5-yl)amino]methyl}-4-trifluoromethylphenyl)-N-propylamino]methyl}cyclohexyl)acetic acid hydrochloride] | 64.2 | 13.3 | 22.4 | – | – | – |
| – | CCCN(C[C@H]1CC[C@H](CC(=O)O)CC1)c1cc(C)c(C(F)(F)F)cc1CN(Cc1cc(C(F)(F)F)cc(C(F)(F)F)c1)c1nnn(C)n1.Cl [Example 157, trans-(4-{[N-(2-{[N′-[3,5-bis(trifluoromethyl)benzyl]-N′-(2-methyl-2H-tetrazol-5-yl)amino]methyl}-5-methyl-4-trifluoromethylphenyl)-N-propylamino]methyl}cyclohexyl)acetic acid hydrochloride] | 80.4 | 17.9 | 27.1 | – | – | – |
| – | CCCN(C[C@H]1CC[C@H](CC(=O)O)CC1)c1ccc(OC(F)(F)F)cc1CN(Cc1cc(C(F)(F)F)cc(C(F)(F)F)c1)c1nnn(C)n1.Cl [Example 158, trans-(4-{[N-(2-{[N′-[3,5-bis(trifluoromethyl)benzyl]-N′-(2-methyl-2H-tetrazol-5-yl)amino]methyl}-4-trifluoromethoxyphenyl)-N-propylamino]methyl}cyclohexyl)acetic acid hydrochloride] | 55.6 | 14.8 | 23.7 | – | – | – |
| – | CCN(C[C@H]1CC[C@H](CC(=O)O)CC1)c1cc(C)c(C(F)(F)F)cc1CN(Cc1cc(C(F)(F)F)cc(C(F)(F)F)c1)c1nnn(C)n1 [Example 168, trans-(4-{[N-(2-{[N′-[3,5-bis(trifluoromethyl)benzyl]-N′-(2-methyl-2H-tetrazol-5-yl)amino]methyl}-5-methyl-4-trifluoromethylphenyl)-N-ethylamino]methyl}cyclohexyl)acetic acid methanesulfonate] | – | – | – | 82 | 141 | 114 |
| – | CCC(C)(C)C(=O)O[C@H]1C[C@@H](C)C=C2C=C[C@H](C)[C@H](CC[C@@H]3C[C@@H](O)CC(=O)O3)[C@H]21 [simvastatin, reference compound] | – | – | – | 53 | 128 | 114 |
